The values that follow come from ChEMBL document CHEMBL1287733, “Implication of the disulfide bridge in trypsin inhibitor SFTI-1 in its interaction with serine proteinases” (Bioorg Med Chem, 2010).

The structures appear in SMILES notation. Calls of active or inactive are those of the source. The calls are words filed in the database; no cut-off is given here. Starred links: 1 amine or outer side, 2 acyl side, 3 side chain; linkers in the order of their positions; H or OH if unused. Non-standard residues stand in square brackets, D forms with d. Residues, ends and D or L forms follow the SMILES beside them. N(2-mercaptoethyl)Gly = O=C(CN(CCS[*:3])[*:1])[*:2]; hCys = N[C@@H](CCS)C(=O)O; Nphe = O=C(O)CNCc1ccccc1; Nlys = NCCCCNCC(=O)O

The species entered for one experiment is Bos taurus. The experiment in a line: Inhibition of bovine trypsin.
`CC[C@H](C)[C@@H]1NC(=O)[C@@H]2CCCN2C(=O)[C@@H]2CCCN2C(=O)[C@H]([C@@H](C)CC)NC(=O)[C@H](CO)NC(=O)[C@H](CCCCN)NC(=O)[C@H]([C@@H](C)O)NC(=O)[C@@H]2CSSC[C@H](NC1=O)C(=O)N[C@@H](Cc1ccccc1)C(=O)N1CCC[C@H]1C(=O)N[C@@H](CC(=O)O)C(=O)NCC(=O)N[C@@H](CCCNC(=N)N)C(=O)N2` showed a Ka of 1.1 ×10¹⁰ /M.
Still for that read-out and setting: the result for `CC[C@H](C)[C@@H]1NC(=O)[C@@H]2CCCN2C(=O)[C@@H]2CCCN2C(=O)[C@H]([C@@H](C)CC)NC(=O)[C@H](CO)NC(=O)[C@H](CCCCN)NC(=O)[C@H]([C@@H](C)O)NC(=O)[C@H](CS)NC(=O)[C@H](CCCNC(=N)N)NC(=O)CNC(=O)[C@H](CC(=O)O)NC(=O)[C@@H]2CCCN2C(=O)[C@H](Cc2ccccc2)NC(=O)[C@H](CS)NC1=O` reads 9.9 ×10⁹ /M.
Still for that read-out and setting: the result for `CC[C@H](C)[C@@H]1NC(=O)[C@@H]2CCCN2C(=O)[C@@H]2CCCN2C(=O)[C@H]([C@@H](C)CC)NC(=O)[C@H](CO)NC(=O)[C@H](CCCCN)NC(=O)[C@H]([C@@H](C)O)NC(=O)CN(CCS)C(=O)[C@H](CCCNC(=N)N)NC(=O)CNC(=O)[C@H](CC(=O)O)NC(=O)[C@@H]2CCCN2C(=O)[C@H](Cc2ccccc2)NC(=O)CN(CCS)C1=O` (cyclo(DGR[N(2-mercaptoethyl)Gly]TKSIPPI[N(2-mercaptoethyl)Gly]FP)) reads “inactive”; that for `CC[C@H](C)[C@@H]1NC(=O)[C@@H]2CCCN2C(=O)[C@@H]2CCCN2C(=O)[C@H]([C@@H](C)CC)NC(=O)[C@H](CO)NC(=O)CN(CCCCN)C(=O)[C@H]([C@@H](C)O)NC(=O)CN(CCS)C(=O)[C@H](CCCNC(=N)N)NC(=O)CNC(=O)[C@H](CC(=O)O)NC(=O)[C@@H]2CCCN2C(=O)[C@H](Cc2ccccc2)NC(=O)CN(CCS)C1=O` (cyclo(DGR[N(2-mercaptoethyl)Gly]T[Nlys]SIPPI[N(2-mercaptoethyl)Gly]FP)), “inactive”.

The species named for another experiment is Bos taurus. Put plainly: Inhibition of bovine chymotrypsin.
`CC[C@H](C)[C@@H]1NC(=O)[C@@H]2CCCN2C(=O)[C@@H]2CCCN2C(=O)[C@H]([C@@H](C)CC)NC(=O)[C@H](CO)NC(=O)CN(Cc2ccccc2)C(=O)[C@H]([C@@H](C)O)NC(=O)[C@@H](C(C)(C)S)NC(=O)[C@H](CCCNC(=N)N)NC(=O)CNC(=O)[C@H](CC(=O)O)NC(=O)[C@@H]2CCCN2C(=O)[C@H](Cc2ccccc2)NC(=O)[C@@H](C(C)(C)S)NC1=O` returned a Ka of 3.11 ×10⁵ /M.
Regarding `CC[C@H](C)[C@@H]1NC(=O)[C@@H]2CCCN2C(=O)[C@@H]2CCCN2C(=O)[C@H]([C@@H](C)CC)NC(=O)[C@H](CO)NC(=O)CN(Cc2ccccc2)C(=O)[C@H]([C@@H](C)O)NC(=O)[C@@H](C(C)(C)S)NC(=O)[C@H](CCCNC(=N)N)NC(=O)CNC(=O)[C@H](CC(=O)O)NC(=O)[C@@H]2CCCN2C(=O)[C@H](Cc2ccccc2)NC(=O)[C@H](CS)NC1=O`, the Ka turned out to be 1.15 ×10⁵ /M.
Still for that read-out and setting: the result for `CC[C@H](C)[C@@H]1NC(=O)[C@@H]2CCCN2C(=O)[C@@H]2CCCN2C(=O)[C@H]([C@@H](C)CC)NC(=O)[C@H](CO)NC(=O)CN(Cc2ccccc2)C(=O)[C@H]([C@H](C)O)NC(=O)[C@H](CS)NC(=O)[C@H](CCCNC(=N)N)NC(=O)CNC(=O)[C@H](CC(=O)O)NC(=O)[C@@H]2CCCN2C(=O)[C@H](Cc2ccccc2)NC(=O)[C@H](CS)NC1=O` reads 3.9 ×10⁸ /M; that for `CC[C@H](C)[C@@H]1NC(=O)[C@@H]2CCCN2C(=O)[C@@H]2CCCN2C(=O)[C@H]([C@@H](C)CC)NC(=O)[C@H](CO)NC(=O)[C@H](CCCCN)NC(=O)[C@H]([C@@H](C)O)NC(=O)[C@@H]2CSSC[C@H](NC1=O)C(=O)N[C@@H](Cc1ccccc1)C(=O)N1CCC[C@H]1C(=O)N[C@@H](CC(=O)O)C(=O)NCC(=O)N[C@@H](CCCNC(=N)N)C(=O)N2`, 5.2 ×10⁶ /M; that for `CC[C@H](C)[C@@H]1NC(=O)[C@@H]2CCCN2C(=O)[C@@H]2CCCN2C(=O)[C@H]([C@@H](C)CC)NC(=O)[C@H](CO)NC(=O)[C@H](CCCCN)NC(=O)[C@H]([C@@H](C)O)NC(=O)[C@H](CS)NC(=O)[C@H](CCCNC(=N)N)NC(=O)CNC(=O)[C@H](CC(=O)O)NC(=O)[C@@H]2CCCN2C(=O)[C@H](Cc2ccccc2)NC(=O)[C@H](CS)NC1=O`, 4.9 ×10⁶ /M.
`CC[C@H](C)[C@@H]1NC(=O)[C@@H]2CCCN2C(=O)[C@@H]2CCCN2C(=O)[C@H]([C@@H](C)CC)NC(=O)[C@H](CO)NC(=O)[C@H](Cc2ccccc2)NC(=O)[C@H]([C@@H](C)O)NC(=O)CN(CCS)C(=O)[C@H](CCCNC(=N)N)NC(=O)CNC(=O)[C@H](CC(=O)O)NC(=O)[C@@H]2CCCN2C(=O)[C@H](Cc2ccccc2)NC(=O)[C@H](CS)NC1=O` (cyclo(CFPDGR[N(2-mercaptoethyl)Gly]TFSIPPI)): the Ka result was “inactive”.
`CC[C@H](C)[C@@H]1NC(=O)[C@@H]2CCCN2C(=O)[C@@H]2CCCN2C(=O)[C@H]([C@@H](C)CC)NC(=O)[C@H](CO)NC(=O)[C@H](Cc2ccccc2)NC(=O)[C@H]([C@@H](C)O)NC(=O)[C@H](CS)NC(=O)[C@H](CCCNC(=N)N)NC(=O)CNC(=O)[C@H](CC(=O)O)NC(=O)[C@@H]2CCCN2C(=O)[C@H](Cc2ccccc2)NC(=O)CN(CCS)C1=O` (cyclo(CTFSIPPI[N(2-mercaptoethyl)Gly]FPDGR)) registered a Ka of 4.79 ×10⁸ /M.
Still for that read-out and setting: with `CC[C@H](C)[C@@H]1NC(=O)[C@@H]2CCCN2C(=O)[C@@H]2CCCN2C(=O)[C@H]([C@@H](C)CC)NC(=O)[C@H](CO)NC(=O)[C@H](Cc2ccccc2)NC(=O)[C@H]([C@@H](C)O)NC(=O)CN(CCS)C(=O)[C@H](CCCNC(=N)N)NC(=O)CNC(=O)[C@H](CC(=O)O)NC(=O)[C@@H]2CCCN2C(=O)[C@H](Cc2ccccc2)NC(=O)CN(CCS)C1=O` (cyclo(DGR[N(2-mercaptoethyl)Gly]TFSIPPI[N(2-mercaptoethyl)Gly]FP)) the entry was “inactive”; with `CC[C@H](C)[C@@H]1NC(=O)[C@@H]2CCCN2C(=O)[C@@H]2CCCN2C(=O)[C@H]([C@@H](C)CC)NC(=O)[C@H](CO)NC(=O)CN(Cc2ccccc2)C(=O)[C@H]([C@@H](C)O)NC(=O)CN(CCS)C(=O)[C@H](CCCNC(=N)N)NC(=O)CNC(=O)[C@H](CC(=O)O)NC(=O)[C@@H]2CCCN2C(=O)[C@H](Cc2ccccc2)NC(=O)CN(CCS)C1=O` (cyclo(DGR[N(2-mercaptoethyl)Gly]T[Nphe]SIPPI[N(2-mercaptoethyl)Gly]FP)), “inactive”.
`CC[C@H](C)[C@@H]1NC(=O)[C@@H]2CCCN2C(=O)[C@@H]2CCCN2C(=O)[C@H]([C@@H](C)CC)NC(=O)[C@H](CO)NC(=O)[C@H](Cc2ccccc2)NC(=O)[C@H]([C@@H](C)O)NC(=O)[C@H](CCS)NC(=O)[C@H](CCCNC(=N)N)NC(=O)CNC(=O)[C@H](CC(=O)O)NC(=O)[C@@H]2CCCN2C(=O)[C@H](Cc2ccccc2)NC(=O)[C@H](CCS)NC1=O` (cyclo(DGR[hCys]TFSIPPI[hCys]FP)) registered a Ka of 7.56 ×10⁹ /M.
